Measured values: patent US12559574B2 (National Health Research Institutes, priority 2019, dated 2026)
Like-named read-outs stand apart in the source and are kept apart here.

Tests used:
A549 = experiment: transwell migration and Matrigel invasion, A549; assay type: cell-based, human; conditions: 24 h; for succinate-induced A549 migration: succinate with test agent
Experimental: (§1) Transwell migration and invasion assays are performed. Relative ability of migration or invasion is calculated from 3 fields under a light microscope. […] Migration assays and Matrigel invasion assay are then performed with PDGF-BB as a chemoattractant and migrated cell counts expressed as fold of basal controls.
(§2) The cells are lysed, and the cell lysates are immunoblotted with antibodies specific for E-cadherin, N-cadherin, vimentin, or β-actin.
(§3) LLC and A549 lung cancer cells are treated with different concentrations of HIF-1α specific inhibitors, and cell migration is assessed in a transwell assay. […] Prolyl hydroxylase (PHD) controls HIF-1α protein stability by hydroxylation of two conserved proline residues in HIF-1α thereby accelerating its degradation. […] Cell lysates are immunoblotted with antibodies specific for E-cadherin, Vimentin, or […]-actin.

LLC cells = experiment: transwell migration and Matrigel invasion, LLC; assay type: cell-based, murine; conditions: 24 h; for succinate-induced LLC migration: succinate with test agent
Experimental: as §1, §3

A549 cells = experiment: EMT marker immunoblot in A549 cells; assay type: cell-based, human
Experimental: as §2, §3

HIF-1α [1] = experiment: kinase phosphorylation and HIF-1α expression in A549 cells; assay type: cell-based, human; conditions: for HIF-1α expression: A549/shNC cells, succinate 1 mM or DMS 20 mM, 12 h, qPCR
Experimental: MAPK-, phosphatidylinositol 3-kinase (PI3K)-AKT-mTOR-, and AMP-activated protein kinase (AMPK)-mediated hypoxia-inducible factor-1α (HIF-1α) upregulation plays critical roles in macrophage activation and cancer progression. Therefore, it is investigated that whether these signaling molecules mediate the succinate actions. […] Using selective kinase inhibitors, LLC cells are treated with different concentrations of LY294002 or SB202190 for 12 h, and Hif-1α mRNA is measured. […] To understand the role of SUCNR1 in driving HIF-1α expression, the expression level of HIF-1α in A549/shSUCNR1 is determined.

[2] = tested on: mouse peritoneal macrophages
Experimental: (§4) On day 21, primary subcutaneous tumors are harvested, and percentage of TAMs is analyzed.

LLC [3] = conditions: succinate 20 and 100 mg/kg i.p. twice a week for 3 weeks vs saline
Experimental: as §4

MCF-7 = conditions: MCF-7, different concentrations of succinate, 24 h
Experimental: as §1

SUCNR1 [4] = conditions: A549, succinate 1 mM
HIF-1α [5] = experiment: kinase phosphorylation and HIF-1α expression in LLC cells; assay type: cell-based, murine; conditions: succinate 1 mM
peritoneal macrophages [6] = experiment: peritoneal macrophage transwell migration (A549-CM, succinate, anti-SUCNR1); assay type: cell-based, mouse; conditions: succinate vs control
Experimental: The peritoneal macrophages are seeded on the upper chamber of transwell plates and cultured with control medium (DMEM) or CM from A549 (A549-CM) for 24 h. […] As shown in FIGS. 18A and 18B, A549-CM and A549-SCM increase macrophage migration compared with the control medium, which is abrogated by anti-SUCNR1 antibody but not control IgG.

LLC [7] = tested on: LLC
Text: The subcutaneous primary tumors are surgically removed after 3 weeks and mice are kept for another 2 weeks at which time animals are sacrificed.

HT-29 = experiment: transwell migration and Matrigel invasion, HT-29; assay type: cell-based, human; conditions: HT-29, different concentrations of succinate, 24 h
Experimental: (§5) Transwell migration and invasion assays are performed.
(§6) Succinate-induced migration of LLC, A549, PC3 and HT-29 cells is blocked by anti-SUCNR1 antibody but not control IgG antibody (FIG. 23A).

SUCNR1 [8] = conditions: succinate 1 mM, 2 h
PC3 = experiment: transwell migration and Matrigel invasion, PC3; assay type: cell-based, human; conditions: PC3, different concentrations of succinate, 24 h
Experimental: as §5, §6

LLC [9] = experiment: syngeneic murine LLC tumor model treated with 6G10F6 monoclonal antibody
Experimental: (§7) VCAM1^+CD11c^+CD11b^low-TAM population is quantified by flow cytometry and normalized to the cell number of control medium treatment. […] The LLC cells are subcutaneously injected into C57BL/6J mice. The mice with an average 50 mm^3 subcutaneous tumors (8 day after LLC tumor inoculation) receive intraperitoneal injections of 6G10F6 monoclonal antibody (1 and 5 mg/kg) or IgG control antibody (5 mg/kg), twice a week for 5 weeks. The subcutaneous tumors are surgically removed 3 weeks after LLC injection for the assessment of TAM polarization; the lung, liver, spleen, and adrenal gland are excised from mice 2 weeks after removal of the primary tumor for the determination of tumor metastasis.

PMϕs = experiment: VCAM1+CD11c+CD11b low-TAM population in succinate-stimulated PMϕs, flow cytometry; assay type: cell-based, mouse; conditions: pre-treated 1 h, succinate 1 mM 3 days
Experimental: as §7

peritoneal macrophages [10] = experiment: succinate-induced peritoneal macrophage migration with anti-succinate antibodies, transwell; assay type: cell-based, mouse; conditions: succinate 1 mM, 24 h
Experimental: as §7

[11] = succinate 20 and 100 mg/kg i.p. twice a week vs saline

COc1cc2c(cc1O)CC[C@@H]1[C@@H]2CC[C@]2(C)[C@@H](O)CC[C@@H]12 [2-MeOE2]
succinate-induced A549 migration (A549): inhibit succinate-mediated migration of LLC and A549 in a dose-dependent manner
succinate-induced LLC migration (LLC cells): inhibit succinate-mediated migration of LLC and A549 in a dose-dependent manner

Cc1cc(-c2nc(-c3ccc(OC(F)(F)F)cc3)no2)nn1Cc1ccnc(N2CCN(C3CC3)CC2)c1 [Bay 87-2243]
succinate-induced A549 migration (A549): inhibit succinate-mediated migration of LLC and A549 in a dose-dependent manner
succinate-induced LLC migration (LLC cells): inhibit succinate-mediated migration of LLC and A549 in a dose-dependent manner
succinate-mediated vimentin augmentation and E-cadherin reduction (A549 cells; pretreated 1 h, succinate 1 mM 24 h): suppresses

COC(=O)CNC(=O)C(=O)OC [DMOG, dimethyloxalyl glycine]
succinate-induced A549 migration (A549): increases

COC(=O)CCC(=O)OC [DMS, dimethyl-ester succinate, reference compound]
HIF-1α expression (HIF-1α [1]): results in elevation of HIF-1α

CN(C)C(=N)N=C(N)N [metformin]
succinate-induced A549 migration (A549): abolish

O=C(O)CCC(=O)O [succinate]
ARG1 protein expression ([2]; different concentrations of succinate, 24 h): increases the expression of ARG1 protein in mouse peritoneal macrophages in a concentration-dependent manner
TAM marker gene expression (Arg1, Fizz1, Mgl1, Mgl2 mRNA) ([2]; qPCR, 24 h): raises the expression of TAM marker gene
TAM surface markers CD11c and VCAM1 ([2]; succinate 1 mM, 3 days, flow cytometry): up-regulates TAM surface markers
VCAM1+CD11c+CD11b low-TAMs in primary subcutaneous tumors (LLC [3]): significantly higher number
cell migration and invasion (MCF-7): promotes cell migration and invasion
phosphorylated ERK1/2 (SUCNR1 [4]): rapid rise of phosphorylated ERK1/2 at 2 min
intracellular Ca2+ (SUCNR1 [4]; 2 h): increased
HIF-1α protein and mRNA expression (HIF-1α [5]): increases HIF-1α protein
phosphorylation of p38 MAPK, AKT, and AMPK (HIF-1α [5]): induces phosphorylation of p38 MAPK, AKT, and AMPK in a time-dependent manner
macrophage migration (peritoneal macrophages [6]): dramatically increase macrophage migration
metastatic cancer nodules in liver and spleen (LLC [7]; [11]): similarly higher
metastatic cancer nodules in lungs (LLC [7]; [11]): higher in mice receiving succinate (in a dose-dependent manner) than in mice receiving saline
incidence of adrenal metastasis (LLC [7]; succinate-treated vs saline, p=0.088): higher in succinate-treated animal, but the difference does not reach statistical significance
cell migration and invasion (A549; A549, different concentrations of succinate): promotes cell migration and invasion
cell migration and invasion (HT-29): promotes cell migration and invasion
PGE2 released into the medium (SUCNR1 [8]; LLC stably transfected with control shRNA): increased
intracellular Ca2+ (SUCNR1 [8]; LLC): increased
cell migration and invasion (PC3): promotes cell migration and invasion
HIF-1α protein and mRNA expression (HIF-1α [1]; A549, succinate 1 mM): increases HIF-1α protein
phosphorylation of p38 MAPK, AKT, and AMPK (HIF-1α [1]; A549, succinate 1 mM): induces phosphorylation of p38 MAPK, AKT, and AMPK in a time-dependent manner
HIF-1α expression (HIF-1α [1]): Up-regulation of HIF-1α is observed
cell migration and invasion (LLC cells; LLC, different concentrations of succinate): promotes cell migration and invasion
E-cadherin, N-cadherin and vimentin levels (A549 cells; succinate 0.5, 1, 2.5 mM 24 h, 1 mM time course): suppresses E-cadherin and increased N-cadherin and vimentin in a concentration and time-dependent manner

O=C(O)CCC(=O)C(=O)O [α-KG, α-ketoglutarate]
succinate-induced A549 migration (A549): reduces

B1: 6G10F6: mouse monoclonal anti-succinate antibody, heavy chain SEQ ID NO: 2, light chain SEQ ID NO: 4 (antibody, V domains shown)
VH: MRVLILLWLFTAFPGILSDVQLQESGPGLVKPSQSLSLTCTVTGYSITSDYAWNWFRQFPGNKLEWMGYTSYSGSTSYNPSLKSRISITRNTSKNQIFLQLNSVTPEDTATYYCAREVTTFGYFDYWGQGTTLTVSS
VL: MAWTSLILSLLALCSGASSQAVVTQESALTTSPGGTVILTCRSSTGAVTTSNYANWVQEKPDHLFTGLIGGTSNRAPGVPVRFSGSLIGDKAALTITGAQTEDDAMYFCALWYSTHYVLGGGTKVTVL
modifications: Heavy chain of 6G10F6 Antibody; Light chain of 6G10F6 antibody
survival of LLC tumor-bearing mice (LLC [9]; 1 and 5 mg/kg i.p.): significantly prolongs the survival
lung tumor multiplicities (LLC [9]; 1 and 5 mg/kg i.p. twice a week for 5 weeks, vs saline): significantly suppresses
TAM population in subcutaneous tumors (LLC [9]; 1 and 5 mg/kg i.p. twice a week, vs saline): significantly suppresses
succinate up-regulated TAM surface markers CD11c and VCAM1 (PMϕs): suppresses
succinate-induced macrophage migration (peritoneal macrophages [10]): suppresses
